Data: patent US11938164B2, “Exosome-based cancer assays” (TRUSTEES OF BOSTON UNIVERSITY, priority 2021, dated 2024)

How the values were obtained:
PD-L1 = experiment: Flow cytometry of PD-L1 on DU145 cells; type: cell-based, human; conditions: MZ-1 50 nM, JQ1 400 nM
Protocol: Single-cell suspensions were washed after collection and stained in ice-cold Ca^+2/Mg^+2-free PBS with a viability dye (Zombie NIR, BioLegend) for 20 min at 4° C. in the dark. Cell suspensions were then washed twice with ice-cold flow cytometry buffer (Ca^+2/Mg^+2-free PBS, supplemented with 2% FBS and 2 mM EDTA). Cell suspensions were then stained for PD-L1 (PE-conjugated, BD Biosciences). All cell suspensions were washed twice in ice cold flow cytometry buffer before analysis. Unstained cells and single-stained controls were used to calculate flow cytometry compensation. Data acquisition (typically 1 million events) was performed on a BD LSRII instrument at the Boston University Flow Cytometry Core Facility. Data analysis was carried out using FlowJo Software (version 10.6.1, Tree Star).

DU145 cells = experiment: RT-PCR of SNAI1 and CD274 in DU145 cells after T2D exosomes plus JQ1 or MZ-1; type: cell-based, human; conditions: MZ-1 50 nM, JQ1 400 nM
Protocol: (FIG. 19A) Expression of SNAI1 and CD274 genes in DU145 cells measured by RT-PCR of cellular RNA after exosome treatment. T2D exosomes (109; T2D Exo) were compared to media only control exosomes (Control), or T2D Exo+JQ1 or MZ1. (JQ1 is a pan-BET inhibitor (400 nM) and MZ-1 is a BRD4-selective degrader (50 nM)). (FIG. 19B) Expression of PD-L1 was measured by flow cytometry after treatments. One million events were analyzed by Flow-Jo and presented as overlaid histograms (control, red trace; experimental, black trace). (FIG. 19C) Flow cytometry data of FIG. 19B were quantified with PD-L1 as percent of parent population. The experiment was conducted in triplicate with differences between means represented as bar graphs. Data were analyzed by two-way ANOVA with statistical significance presented as: ****, P<0.0001 (TGFB, TGF-β positive control at 5 ng/mL for SNAI1 induction; IFNgamma, interferon-γ positive control at 5 ng/mL for CD274 induction).
Procedures were as previously described. Briefly, total RNA was extracted from tumor cells using an RNAeasy Kit (Qiagen). Reverse transcription reactions were performed with 1 μg of total RNA with the QuantiTect Reverse Transcription kit (Qiagen). Gene expression was measured using TaqMan™ master mix (Thermofisher, 4369510) and human gene probes as follows: SNAI (Hs00195591_m1), SNA2 (Hs00950344_m1), CDH1 (Hs01023895_m1), ACTB (Hs00357333_g1), CD274 (encodes PD-L1, Hs01125301_m1), CD155 (encodes PVR or TIGIT ligand, Hs00197846_m1), VIM (Hs00958111_m1), TGFB1 (Hs00998133_m1), and AHNAK (Hs01102463_m1).

4T1 cells = experiment: Transwell migration assay with 4T1 cells; type: cell-based, murine; conditions: 50 nM MZ-1
Protocol: FIGS. 9A-9D depict EMT induction in murine 4T1 cells treated with EVs from IS vs IR murine adipocytes. Murine 3T3-L1 adipocytes were differentiated from pre-adipocyte fibroblasts as published (24), treated with 250 pM murine TNFα overnight, as specified to induce insulin resistance (9), then adipocyte conditioned media was used as the source of EVs. (FIG. 9A) 4T1 cells were treated for 3 days with EVs from IS or IR adipocytes, vs. media control EVs, then cells were fixed for immunohistochemistry. Vimentin and E-cadherin, as mesenchymal or epithelial markers respectively, were visualized by fluorophore-conjugated primary anti-mouse antibodies, with phalloidin stain for cytoskeletal structure and DAPI counterstain for DNA. Bar, 10 μm. (FIG. 9B) RT-PCR validation of two selected EMT genes, induced by EVs. (FIG. 9C) Transwell migration assay with 4T1 cells exposed to IS vs IR EVs, or IR treated with 50 nM MZ-1 (25) to inhibit BRD4 and block migration (18,24). (FIG. 9D) Quantitation of B. (n=3; ***, P<0.005).

BRD2, BRD3 and BRD4 = conditions: DU145 cells, cited from earlier work
MCF-7 cells = experiment: EMT/CSC gene expression (RT-PCR, PCR array, IPA) in MCF-7 cells treated with adipocyte exosomes; type: cell-based, human; conditions: MCF7 cells; compared to control EVs
Protocol: RNA was isolated from cells using RNeasy Plus Mini Kit (74136, Qiagen). From each sample, 1 μg of RNA was used to prepare 20 μL cDNA using QuantiTect Reverse Transcription Kit (Qiagen, 205313). Human RT2 Profiler™ PCR Array, including Epithelial to Mesenchymal Transition (EMT) (PAHS-090Z) and Cancer Stem Cell (PAHS-176ZC) arrays, were purchased from Qiagen. Each cDNA sample (102 μL comprised of 1 μg RNA) was mixed with 1,350 μL RT2 SYBR Green ROX qPCR Mastermix (Qiagen, 330522) and 1,248 μL RNAse-free water. A total volume of 2,700 μL was mixed by vortexing and transferred to a reservoir. Then, an 8 channel pipettor was used to take aliquots of reaction mix from the reservoir, to distribute 25 μL into each well of the array. PCR reactions were performed and results were analyzed using a 7500 Fast Real-Time PCR instrument.
All Ct values of the genes were normalized to the respective ACTB gene (delta Ct). […] For the control groups, delta.delta Ct was calculated using this formula: ΔΔCt=ΔCt (C1 or C2 or C3)—ΔCt (Control average). Then, fold-change was calculated using 2∧−ΔΔCt, (2 to the power of negative ΔΔCt). Next, the Z score was calculated based on this formula: Z score=(x-mean)/SD, where X is the fold-change. […]
To predict disease and function, and downstream pathways, data were analyzed through the use of Ingenuity Pathway Analysis, IPA (QIAGEN Inc.). […]

Row | Molecule | PD-L1 surface protein induced by T2D exosome treatment (PD-L1) | expression of SNAI1 induced by T2D plasma exosomes (DU145 cells) | transcription of CD274 induced by T2D plasma exosomes (DU145 cells) | 4T1 migration provoked by exosomes from IR adipocytes (4T1 cells) | elimination of BET proteins, low concentration (BRD2, BRD3 and BRD4; 50 nM) | elimination of BET proteins, high doses (BRD2, BRD3 and BRD4; 400 nM) | transcription of ZEB1 and SNAI2 readout genes (MCF-7 cells)
1 | Cc1sc2c(c1C)C(c1ccc(Cl)cc1)=N[C@@H](CC(=O)OC(C)(C)C)c1nnc(C)n1-2 [JQ1] | inhibited | not able to reduce expression below the BRD4-selective level | inhibit transcription to below baseline | – | – | – | –
2 | Cc1ncsc1-c1ccc(CNC(=O)[C@@H]2C[C@@H](O)CN2C(=O)[C@@H](NC(=O)COCCOCCOCCNC(=O)C[C@@H]2N=C(c3ccc(Cl)cc3)c3c(sc(C)c3C)-n3c(C)nnc32)C(C)(C)C)cc1 [MZ-1] | inhibited | inhibited expression | same inhibitory effect | effectively ablated | selective to eliminate BRD4 protein while preserving BRD2 and BRD3 | eliminate all three somatic BET proteins | –
3 | TGF-β | – | – | – | – | – | – | Induction
